Source: patent US6462060B2, “Heterocyclic-hydroxyimino-fluorene nuclei compounds and pharmaceutical compositions for inhibiting protein kinases, and methods for their use” (Agouron Pharmaceuticals, Inc., priority 2000, dated 2002)

How the values were obtained:
Assay type in all cases: biochemical
CHK-1 KH289 = biological target: T1, CHK-1 KH289 (Homo sapiens, UniProt O14757); experiment: CHK-1 assay (coupled spectrophotometric, Syntide-2); details: for Ki: 10 nM CHK-1 KH289, 0.15 mM ATP
T1 construct: CHK-1 KH289 contains residues 1-289 of human CHK-1; 6xHis (C); made in house; host or cells: baculovirus/insect cell system
T1 sequence (O14757 1-289): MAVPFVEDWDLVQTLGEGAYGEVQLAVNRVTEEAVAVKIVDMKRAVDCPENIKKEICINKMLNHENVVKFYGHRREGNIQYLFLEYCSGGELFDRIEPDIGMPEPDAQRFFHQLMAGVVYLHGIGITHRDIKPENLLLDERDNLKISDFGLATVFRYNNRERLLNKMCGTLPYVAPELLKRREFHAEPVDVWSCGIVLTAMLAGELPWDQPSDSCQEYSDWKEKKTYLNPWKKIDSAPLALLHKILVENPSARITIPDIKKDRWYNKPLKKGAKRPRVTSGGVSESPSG
Text: CHK-1 KH289 contains residues 1-289 of human CHK-1 including the kinase domain. It contains 6 histidine residues (6×His-tag) at the C-terminus of residue 289. The protein was expressed in a baculovirus/insect cell system and purified by conventional chromatographic techniques.
(§1) The production of ADP from ATP that accompanies phosphoryl transfer to the synthetic substrate peptide Syntide-2 ([…]) was coupled to oxidation of NADH using phosphoenolpyruvate (PEP) through the actions of pyruvate kinase (PK) and lactic dehydrogenase (LDH). The oxidation of NADH was monitored by following the decrease of absorbance at 340 nm (ε340=6.22 cm^−1 mM^−1) using a HP8452 spectrophotometer. Typical reaction solutions contained: 4 mM PEP; 0.15 mM NADH; 28 units of LDH/ml; 16 units of PK/ml; 3 mM DTT; 0.125 mM Syntide2Σ; 0.15 mM ATP; 25 mM MgCl2 in 50 mM TRIS, pH 7.5; and 400 mM NaCl. Assays were initiated with 10 nM of CHK-1 KH289. Ki values were determined by measuring initial enzyme activity in the presence of varying concentrations of test compounds. The data were analyzed using Enzyme Kinetic and Kaleidagraph software.

CDK4/Cyclin D3 complex = biological target: T2, CDK4/Cyclin D3 complex (Homo sapiens, UniProt P11802); experiment: CDK4/Cyclin D assay (32P incorporation into Rb fragment); details: apparent Ki; 50 nM CDK4/Cyclin D3 complex, 25 μM ATP
T2 construct: made in house; host or cells: insect cells co-infected with baculovirus expression vectors
T2 sequence (P11802 whole entry, the tested form may be a part): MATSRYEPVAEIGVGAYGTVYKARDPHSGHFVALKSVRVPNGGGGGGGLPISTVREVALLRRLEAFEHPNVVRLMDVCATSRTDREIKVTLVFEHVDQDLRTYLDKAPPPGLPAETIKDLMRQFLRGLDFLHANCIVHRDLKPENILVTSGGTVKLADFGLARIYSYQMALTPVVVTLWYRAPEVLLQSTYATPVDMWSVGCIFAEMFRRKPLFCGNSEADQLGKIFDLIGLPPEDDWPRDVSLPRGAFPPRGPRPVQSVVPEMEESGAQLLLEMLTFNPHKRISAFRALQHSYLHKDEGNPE
T2 sequence (P30281 whole entry partner, the tested form may be a part): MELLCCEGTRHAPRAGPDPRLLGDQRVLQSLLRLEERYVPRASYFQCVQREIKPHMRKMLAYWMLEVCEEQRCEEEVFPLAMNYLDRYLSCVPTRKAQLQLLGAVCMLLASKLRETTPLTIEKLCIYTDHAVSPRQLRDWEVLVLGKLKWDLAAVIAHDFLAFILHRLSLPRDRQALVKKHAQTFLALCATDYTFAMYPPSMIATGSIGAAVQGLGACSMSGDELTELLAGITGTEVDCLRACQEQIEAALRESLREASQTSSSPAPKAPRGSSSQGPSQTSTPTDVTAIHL
Method: CDK4/Cyclin D Construct for Assay: A complex of human CDK4 and cyclin D3, or a complex of cyclin D1 and a fusion protein of human CDK4 and glutathione-S-transferase (GST-CDK4), was purified using traditional biochemical chromatographic techniques from insect cells that had been co-infected with the corresponding baculovirus expression vectors.
CDK2/Cyclin A and CDK4/Cyclin D Assays
Cyclin-dependent kinase activity was measured by quantifying the enzyme-catalyzed, time-dependent incorporation of radioactive phosphate from [^32P]ATP into a recombinant fragment of the retinoblastoma protein. Unless noted otherwise, assays were performed in 96-well plates in a total volume of 50 μL, in the presence of 10 mM HEPES (N-[2-hydroxyethyl]piperazine-N′-[2-ethanesulfonic acid]) (pH 7.4), 10 mM MgCl2, 25 μM adenosine triphosphate (ATP), 1 mg/mL ovalbumin, 5 μg/mL leupeptin, 1 mM dithiothreitol, 10 mM β-glycerophosphate, 0.1 mM sodium vanadate, 1 mM sodium fluoride, 2.5 mM ethylene glycol-bis(β-aminoethyl ether)-N,N,N′N′-tetraacetic acid (EGTA), 2% (v/v) dimethylsulfoxide, and 0.03-0.2 μCi [^32P]ATP. The substrate (0.3-0.5 μg) was purified recombinant retinoblastoma protein fragment (Rb) (residues 386-928 of the native retinoblastoma protein; 62.3 kDa, containing the majority of the phosphorylation sites found in the native 1 06kDa protein, as well as a tag of six histidine residues for ease of purification). Reactions were initiated with CDK2 (150 nM CDK2/Cyclin A complex) or CDK4 (50 nM CDK4/Cyclin D3 complex), incubated at 30° C., and terminated after 20 minutes by the addition of ethylenediaminetetraacetic acid (EDTA) to 250 mM. The phosphorylated substrate was then captured on a nitrocellulose membrane using a 96-well filtration manifold, and unincorporated radioactivity was removed by repeated washing with 0.85% phosphoric acid. Radioactivity was quantified by exposing the dried nitrocellulose membranes to a phosphorimager. Apparent Ki values were measured by assaying enzyme activity in the presence of different compound concentrations and subtracting the background radioactivity measured in the absence of enzyme. The kinetic parameters (kcat, Km for ATP) were measured for each enzyme under the usual assay conditions by determining the dependence of initial rates on ATP concentration. The data were fit to an equation for competitive inhibition using Kaleidagraph (Synergy Software), or were fit to an equation for competitive tight-binding inhibition using the software KineTic (BioKin, Ltd.). The specific activity of CDK4 was the same whether complexed to full-length cyclin D3 or the truncated Cyclin D3 construct; both complexes also yielded very similar Ki values for selected inhibitors.

CDS1/CHK-2 (CDS1 CE4) = biological target: T3, CDS1/CHK-2 (CDS1 CE4) (Homo sapiens, UniProt O96017); experiment: CDS1 assay (conditions identical to the CHK-1 assay); details: 10 nM CDS1
T3 construct: CDS1 CE4 contains residues 209-502 including the kinase domain; 6xHis leader with thrombin site; first M absent from the expressed protein) (N); made in house; host or cells: E. coli
T3 sequence (O96017 209-502): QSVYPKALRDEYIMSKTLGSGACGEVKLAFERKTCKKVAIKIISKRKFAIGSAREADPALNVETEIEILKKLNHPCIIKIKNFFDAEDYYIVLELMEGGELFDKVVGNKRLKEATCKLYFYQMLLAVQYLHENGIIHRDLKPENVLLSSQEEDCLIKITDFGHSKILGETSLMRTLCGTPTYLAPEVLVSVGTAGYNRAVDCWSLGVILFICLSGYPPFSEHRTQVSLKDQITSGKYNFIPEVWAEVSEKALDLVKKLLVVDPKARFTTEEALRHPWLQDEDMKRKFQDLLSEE
Text: CDS1 Construct for Assay: CDS1 CE4 contains residues 209-502 including the kinase domain of human CDS1/CHK-2 (GenBank accession number AFO86904, Matsuoka et al., Science, 282, 1893-97 (1998)). It contains the amino acid sequence: […] at the N-terminus of residue 209. (The first M is not present in the expressed protein due to post-translational processing of the N-terminus.) The protein was expressed in E. coli and purified by conventional chromatographic techniques.
as §1
The CDS 1 assay was prepared under identical conditions to that of the CHK-1 assay, except with the use of 10 nM of CDS1.

[1] = biological target: T4, phosphorylated VEGF-R2Δ50 (FLVK-P) (Homo sapiens, UniProt P35968, DEL940-989/E990V); experiment: VEGF-R2 coupled spectrophotometric (FLVK-P) assay; details: phosphorylated VEGF-R2Δ50, 1 mM ATP
T4 construct: VEGF-R2Δ50 contains residues 806-939 and 990-1171; made in house; host or cells: baculovirus/insect cell system
T4 sequence (P35968 with tags, fused parts or gaps DEL940-989/E990V limits assumed): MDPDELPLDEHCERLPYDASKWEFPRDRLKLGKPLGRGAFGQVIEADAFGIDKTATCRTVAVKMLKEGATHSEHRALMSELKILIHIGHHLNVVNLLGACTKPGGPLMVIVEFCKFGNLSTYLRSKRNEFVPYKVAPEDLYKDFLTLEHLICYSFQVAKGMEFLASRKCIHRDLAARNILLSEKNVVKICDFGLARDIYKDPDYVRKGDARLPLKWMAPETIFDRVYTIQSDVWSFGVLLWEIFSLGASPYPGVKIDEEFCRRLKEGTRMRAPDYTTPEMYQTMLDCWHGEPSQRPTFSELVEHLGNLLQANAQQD
Text: VEGF-R2 Construct for Assay: A construct (VEGF-R2Δ50) of the cytosolic domain of human vascular endothelial growth factor receptor 2 (VEGF-R2) lacking the 50 central residues of the 68 residues of the kinase insert domain was expressed in a baculovirus/insect cell system. Of the 1356 residues of full-length VEGF-R2, VEGF-R2Δ50 contains residues 806-939 and 990-1171, and also one point mutation (E990V) within the kinase insert domain relative to wild-type VEGF-R2. See McTigue et al., Structure, 7, 319-330 (1999); U.S. patent application Ser. No. 09/390,326, filed Sep. 7, 1999. Autophosphorylation of the purified construct was performed by incubation of the enzyme at a concentration of 4 μM in the presence of 3 mM ATP and 40 mM MgCl2 in 100 mM Hepes, pH 7.5, containing 5% glycerol and 5 mM DTT, at 4° C. for 2 h. […] See Parast et al., Biochemistry, 37, 16788-16801 (1998).
Coupled Spectrophotometric (FLVK-P) Assay
The production of ADP from ATP that accompanies phosphoryl transfer was coupled to oxidation of NADH using phosphoenolpyruvate (PEP) and a system having pyruvate kinase (PK) and lactic dehydrogenase (LDH). The oxidation of NADH was monitored by following the decrease of absorbance at 340 nm (e340=6.22 cm^−1 mM^−1) using a Beckman DU 650 spectrophotometer. Assay conditions for phosphorylated VEGF-R2Δ50 (indicated as FLVK-P in the tables below) were the following: 1 mM PEP; 250 μM NADH; 50 units of LDH/mL; 20 units of PK/mL; 5 mM DTT; […]; 1 mM ATP; and 25 mM MgCl2 in 200 mM Hepes, pH 7.5. Assay conditions for unphosphorylated VEGF-R2Δ50 (indicated as FLVK in the tables) were the following: 1 mM PEP; 250 ,M NADH; 50 units of LDH/mL; 20 units of PK/mL; 5 mM DTT; 20 mM poly(E4Y1); 3 mM ATP; and 60 mM MgCl2 and 2 mM MnCl2 in 200 mM Hepes, pH 7.5. Assays were initiated with 5 to 40 nM of enzyme. Ki values were determined by measuring enzyme activity in the presence of varying concentrations of test compounds. The data were analyzed using Enzyme Kinetic and Kaleidagraph software.

Ki (CHK-1 KH289) [µM]	Ki (CDK4/Cyclin D3 complex) [nM]	Ki (CDS1/CHK-2 (CDS1 CE4)) [µM]	Ki [1] [µM]	inhibition at 10 µM (CHK-1 KH289; at 10 μM, read-out: CHK-1 KH289 percent inhibition) [%]	inhibition at 25 µM (CHK-1 KH289; at 25 μM, read-out: CHK-1 KH289 percent inhibition) [%]	SMILES
26.6	2100	15	15.9			O/N=C1/c2ccccc2-c2nc3nonc3nc21 [Comparison Ex. 1, reference compound]
	1790		15.5	14		Nc1cc2c(cc1[N+](=O)[O-])-c1ccccc1C2=NO [Comparison Ex. 2(a), reference compound]
8.1	3210	0.604	0.923			Nc1cc2c(cc1N)-c1ccccc1C2=NO [Comparison Ex. 2(b), reference compound]
	3620	37			33	Nc1cc2c(cc1[N+](=O)[O-])-c1cc([N+](=O)[O-])c(N)cc1C2=NO [Comparison Ex. 2(c), reference compound]
